These results are taken from doi:10.1101/2023.11.23.568446v1 (bioRxiv, 2023).

Bridge positions count the residues as written; N and C are the ends. Square brackets hold non-standard residues; d marks the D form. Peptide text beside a SMILES is read from it. * marks the point of attachment. X1 = CC[C@H](C)CCCCC(=O)*; Dab = NCC[C@H](N)C(=O)O

In experiment [1] the test system is DHA10 (CRAB). Put plainly: Checkerboard assay. Type of experiment: cell-based, Acinetobacter baumannii. Conditions: for MIC in combination, Antibiotic: in combination with AIG-R5.
Experiment [2] concerns A. baumannii ATCC 17978. As to the kind of experiment: Checkerboard assay. Conditions: for MIC alone, Antibiotic: A. baumannii ATCC 17978. The experiment is classed as cell-based, Acinetobacter baumannii.
In experiment [3] the test system is A. baumannii isolates. Put plainly: Antibiotic resistance profile of isolates. The experiment is classed as cell-based, Acinetobacter baumannii.
For experiment [4], the system named is A. baumannii biofilms. The settings on record: at 128µM (64×MIC); ref Kim et al., 2018; cited from earlier work.

In the case of `NCC[C@H](O)C(=O)N[C@@H]1C[C@H](N)[C@@H](O[C@H]2O[C@H](CN)[C@@H](O)[C@H](O)[C@H]2O)[C@H](O)[C@H]1O[C@H]1O[C@H](CO)[C@@H](O)[C@H](N)[C@H]1O` [Amikacin], the “MIC in combination, Antibiotic” value came to 256 µg/mL in experiment [1], 0.5 µg/mL in experiment [2] (in combination with AIG-R1), 1 µg/mL in experiment [2] (in combination with AIG-R4) and 0.5 µg/mL in experiment [2] (in combination with AIG-R5). Also, the “MIC alone, Antibiotic” value in experiment [2] came to 2 µg/mL.
On to `CC[C@H](C)CCCCC(=O)N[C@@H](CCN)C(=O)N[C@H](C(=O)N[C@@H](CCN)C(=O)N[C@H]1CCNC(=O)[C@H]([C@@H](C)O)NC(=O)[C@H](CCN)NC(=O)[C@H](CCN)NC(=O)[C@H](CC(C)C)NC(=O)[C@@H](CC(C)C)NC(=O)[C@H](CCN)NC1=O)[C@@H](C)O` [Colistin] (X1-[Dab]T[Dab][Dab][Dab][dL]L[Dab][Dab]T; lactam 4-C (inferred); N-terminus assumed), for which, in experiment [2], the “MIC alone, Antibiotic” value worked out at 1 µg/mL. Besides, the “MIC in combination, Antibiotic” value in experiment [2] (in combination with AIG-R1) was determined as 0.25 µg/mL; in experiment [2] (in combination with AIG-R4), 0.25 µg/mL; in experiment [2] (in combination with AIG-R5), 0.5 µg/mL. The Antibiotic resistance profile result in experiment [3] (strain 17978) is “S”; in experiment [3] (strain Ci 3) it was “R”; in experiment [3] (strain Ci 6), “R”; in experiment [3] (strain Ci 7) it was “R”; in experiment [3] (strain DHA 8), “R”; in experiment [3] (strain DHA 10), “R”. Further, the Antibiotic resistance profile result in experiment [3] (strain P-1119), in experiment [3] (strain P-1131), in experiment [3] (strain P-1139), in experiment [3] (strain P-1169) and in experiment [3] (strain P-1182) was “R” each time.
Turning to `C[C@@H](O)[C@H]1C(=O)N2C(C(=O)O)=C(SCCN=CN)C[C@H]12` [Imipenem], the “MIC alone, Antibiotic” value in experiment [2] turned out to be 2 µg/mL. The “MIC in combination, Antibiotic” value in experiment [2] (in combination with AIG-R1), in experiment [2] (in combination with AIG-R4) and in experiment [2] (in combination with AIG-R5) was 1 µg/mL each time. For the same molecule, the Antibiotic resistance profile entry in experiment [3] (strain 17978) is “S”; in experiment [3] (strain Ci 3), “R”; in experiment [3] (strain Ci 6) it was “R”; in experiment [3] (strain Ci 7) it was “R”; in experiment [3] (strain DHA 8) it was “R”; in experiment [3] (strain DHA 10), “R”. The Antibiotic resistance profile entry in experiment [3] (strain P-1119), in experiment [3] (strain P-1131), in experiment [3] (strain P-1139), in experiment [3] (strain P-1169) and in experiment [3] (strain P-1182) was “R” throughout.
Regarding `NC[C@H]1O[C@H](O[C@H]2[C@H](O)[C@@H](O[C@H]3O[C@H](CO)[C@@H](O)[C@H](N)[C@H]3O)[C@H](N)C[C@@H]2N)[C@H](O)[C@@H](O)[C@@H]1O.O=S(=O)(O)O` [Kanamycin sulphate], the “MIC alone, Antibiotic” value in experiment [2] worked out at 4 µg/mL. Besides, the “MIC in combination, Antibiotic” value in experiment [2] (in combination with AIG-R1) was 2 µg/mL; in experiment [2] (in combination with AIG-R4), 2 µg/mL; in experiment [2] (in combination with AIG-R5), 1 µg/mL.
On to `C[C@@H](O)[C@H]1C(=O)N2C(C(=O)O)=C(S[C@@H]3CN[C@H](C(=O)N(C)C)C3)[C@H](C)[C@H]12` [Meropenem], for which the Antibiotic resistance profile entry was “S” in experiment [3] (strain 17978); “R” in experiment [3] (strain Ci 3); “R” in experiment [3] (strain Ci 6); “R” in experiment [3] (strain Ci 7); “R” in experiment [3] (strain DHA 8); “R” in experiment [3] (strain DHA 10). Further, the Antibiotic resistance profile result in experiment [3] (strain P-1119), in experiment [3] (strain P-1131), in experiment [3] (strain P-1139), in experiment [3] (strain P-1169) and in experiment [3] (strain P-1182) was “R” throughout.
As to `CO[C@H]1/C=C/O[C@@]2(C)Oc3c(C)c(O)c4c(O)c(cc(O)c4c3C2=O)NC(=O)/C(C)=C\C=C\[C@H](C)[C@H](O)[C@@H](C)[C@@H](O)[C@@H](C)[C@H](OC(C)=O)[C@@H]1C` [Rifamycin], in experiment [2], the “MIC alone, Antibiotic” value was found to be 4 µg/mL. Moreover, the “MIC in combination, Antibiotic” value in experiment [2] (in combination with AIG-R1), in experiment [2] (in combination with AIG-R4) and in experiment [2] (in combination with AIG-R5) was 2 µg/mL each time.
For `NC[C@H]1O[C@H](O[C@H]2[C@H](O)[C@@H](O[C@H]3O[C@H](CO)[C@@H](O)[C@H](N)[C@H]3O)[C@H](N)C[C@@H]2N)[C@H](N)C[C@@H]1O` [Tobramycin], the “MIC alone, Antibiotic” value is 512 µg/mL in experiment [1] and 2 µg/mL in experiment [2]. Also, the “MIC in combination, Antibiotic” value in experiment [1] amounted to 128 µg/mL; in experiment [2] (in combination with AIG-R1), 1 µg/mL; in experiment [2] (in combination with AIG-R4), 1 µg/mL; in experiment [2] (in combination with AIG-R5), 0.5 µg/mL.
As to magainin 2, the degraded pre-formed biofilms in experiment [4] was 33.3%.
